# Experimental data taken from ChEMBL document CHEMBL3046911, “Serotonin transporter activity of imidazolidine-2,4-dione and imidazo[2,1-f]purine-2,4-dione derivatives in aspect of their acid-base properties” (Med Chem Res, 2012).
# Experiment: physchem
row,pKa,SMILES
1,8.44,COc1ccccc1N1CCN(CCCn2c(-c3ccccc3)cn3c4c(=O)n(C)c(=O)n(C)c4nc23)CC1
2,10.4,Cn1c(=O)c2c(nc3n(CCCN4CCc5ccccc5C4)c(-c4ccccc4)cn23)n(C)c1=O
3,10.6,Cn1c(=O)c2c(nc3n(CCCN4CCN(c5cccc(Cl)c5)CC4)c(-c4ccccc4)cn23)n(C)c1=O
4,7.61,Cc1cn2c3c(=O)n(C)c(=O)n(C)c3nc2n1CCCN1CCN(c2cccc(Cl)c2Cl)CC1
5,11.1,O=C1NC2(CCCc3ccccc32)C(=O)N1CCCN1CCN(c2cccc(C(F)(F)F)c2)CC1 (configuration not stated)
6,10.6,O=C1NC2(CCCc3ccccc32)C(=O)N1CCCN1CCN(c2ccccc2)CC1 (configuration not stated)
7,10.9,O=C1NC2(CCCc3ccccc32)C(=O)N1CCCN1CCc2ccccc2C1 (configuration not stated)
8,8.19,COc1ccccc1N1CCN(CCCn2ccn3c4c(=O)n(C)c(=O)n(C)c4nc23)CC1
9,10.3,O=C1NC2(CCc3ccccc32)C(=O)N1CCCN1CCN(c2cccc(Cl)c2)CC1 (configuration not stated)
10,10.8,O=C1NC2(CCCc3ccccc32)C(=O)N1CCCN1CCN(c2cccc(Cl)c2)CC1 (configuration not stated)
11,8.79,Cn1c(=O)c2c(nc3n(CCCN4CCN(c5ccccc5)CC4)c(-c4ccccc4)cn23)n(C)c1=O
12,10.5,O=C1NC2(CCc3ccccc32)C(=O)N1CCCN1CCN(c2ccccc2)CC1 (configuration not stated)
13,9.6,COc1ccccc1N1CCN(CCCN2C(=O)NC3(CCc4ccccc43)C2=O)CC1 (configuration not stated)
14,8.66,Cc1cn2c3c(=O)n(C)c(=O)n(C)c3nc2n1CCCN1CCc2ccccc2C1
15,8.35,Cn1c(=O)c2c(nc3n(CCCN4CCN(c5cccc(Cl)c5)CC4)ccn23)n(C)c1=O
16,7.55,Cc1cn2c3c(=O)n(C)c(=O)n(C)c3nc2n1CCCN1CCN(c2ccccc2)CC1
17,8.12,Cc1cn2c3c(=O)n(C)c(=O)n(C)c3nc2n1CCCN1CCN(c2cccc(Cl)c2)CC1
18,7.61,COc1ccccc1N1CCN(CCCn2c(C)cn3c4c(=O)n(C)c(=O)n(C)c4nc23)CC1
19,10.9,O=C1NC2(CCc3ccccc32)C(=O)N1CCCN1CCc2ccccc2C1 (configuration not stated)
20,9.96,O=C1NC2(CCc3ccccc32)C(=O)N1CCCN1CCN(c2cccc(C(F)(F)F)c2)CC1 (configuration not stated)
21,8.09,Cn1c(=O)c2c(nc3n(CCCN4CCN(c5ccccc5)CC4)ccn23)n(C)c1=O
22,10.3,COc1ccccc1N1CCN(CCCN2C(=O)NC3(CCCc4ccccc43)C2=O)CC1 (configuration not stated)
